Measured values published in patent publication US12011433B2 (UNIVERSITÁ DEGLI STUDI DI BARI “ALDO MORO”, priority 2016, dated 2024).

Test system: p-IkBα
Experiment: NF-kB activation (p-IkBα) in brain areas of LPS-treated mice, immunoblotting
Type: in vivo
Settings: all tested brain areas of LPS-treated mice
Experimental: The protein concentration in the supernatant was spectrophotometrically determined by Bradford's protein assay (Bradford, 1976). […] Proteins (25 μg/lane) and prestained standards (BioRad Laboratories, Hercules, CA, USA) were loaded on 7% or 12% SDS precast polyacrylamide gels (BioRad Laboratories). After electrophoresis, the resolved proteins were transferred from the gel to nitrocellulose membranes. A blotting buffer [20 mMTris/150 mM glycine, pH=8.0, 20% (v/v) methanol] was used for gel and membrane saturation and blotting. […] Bands were visualized by chemiluminescence detection (Invitrogen, Milan, Italy). The β-actin level was used as a protein loading control. For tissue analysis, obtained bands were normalized to the level of β-actin performed for each cerebral area tested. For cell cultures the bands were normalized to the β-actin level in each experimental condition. […] VM in all the Figures) once a day for 10 days. […] On the seventh day, mice were anesthetized with tribromoethanol (250 mg/Kg, i.p.) and positioned in a stereotactic apparatus (Kopf Instruments, Tujunga, CA, USA).

COc1ccc(-c2noc(CC(=O)O)c2-c2ccc(OC)cc2)cc1 [mofezolac, 2-(3,4-bis(4-methoxyphenyl)isoxazol-5-yl)acetic acid]
p-IkBα: significant reduction
